Results from article PMC12111648, “New Dimethoxyaryl-Sesquiterpene Derivatives with Cytotoxic Activity Against MCF-7 Breast Cancer Cells: From Synthesis to Topoisomerase I/II Inhibition and Cell Death Mechanism Studies” (International Journal of Molecular Sciences, 2025).
“Also recorded” adds a separate entry of the source. Like-named read-outs stand apart in the source and are kept apart here.

Assays:
MCF-7 cells [1] = conditions: cited from earlier work
[2] = tested on: caspases-3/7 in MCF-7 cells; experiment: Caspase-Glo 3/7 assay; type: cell-based, human; conditions: MCF-7, 50 μM, 24 h, versus control
Protocol: Since ROS levels were increased in the MCF-7 cancer cell line in response to the compounds, it is important to determine whether this effect is associated with the onset of apoptotic cell death. […] Cells were treated with the selected compounds at 50 μM for 24 h, incubated in situ with the Caspase-Glo 3/7 marker assay, and then analyzed in a luminometer.
The activity of caspase 3/7 in MCF-7 cells treated with the compounds was determined using a Caspase-Glo-3/7 Assay kit from Promega (UK). This assay is a homogenous and luminescent method that measures the activity of caspase-3 and -7, which are essential for apoptosis. MCF-7 cells (1 × 10^4 cells per well) were seeded in a 96-well plate and incubated overnight. The cells were then treated for 24 h with the compounds (50 µM) and a blank as a control. After treatment, the Caspase-Glo® 3/7 reagent was prepared according to the manufacturer’s instructions. Specifically, 100 μL of the reagent was added to 100 μL of culture medium containing the treated cells in each well, and the mixture was incubated for 1 h at room temperature in the dark. Luminescence was then measured using a luminometer (Berthold Sirius Single Tube Luminometer). The fold change in caspase activity was calculated by expressing the average luminescence of each treatment as a fold change with respect to the average luminescence of the negative control.
Figure 6 The effect of the compounds on caspases-3/7 activity in cells from the human breast cancer cell line MCF-7. Caspases-3/7 activity was determined in MCF-7 cells following treatment with the compounds (50 μM) for 24 h. The data are reported as the ratio of activity in treated cells vs. the control (1% ethanol), which were arbitrarily assigned a unitary value. * p < 0.05 versus control cells (Ctrl). The data are reported as the mean values ± S.D. of three different experiments with samples in triplicate.

MCF-7 cells [3] = experiment: Intracellular ROS generation (DCFH2-DA, flow cytometry); type: cell-based, human; conditions: MCF-7, compounds at respective IC50, 24 h, versus control
Protocol: An increase in intracellular ROS may be one of the factors that contribute to the cytotoxicity of certain compounds in cancer cell lines. In fact, ROS and mitochondrial damage are often associated with the induction of cell death. […] DCF fluorescence was then measured by flow cytometry. The difference in the percentage of DCF-positive cells between treated and control cells was used to indicate an increase in intracellular ROS, as shown in Figure 4.
Reactive oxygen species (ROS) production was measured using flow cytometry. Cells were treated with compounds (each with respective IC50 values) for 24 h, with untreated cells serving as the negative control and cells treated with 1 µM daunorubicin as the positive control. Following the treatment, intracellular ROS levels were visualized after incubation with 2′,7′-dichlorodihydro-fluorescein diacetate (DCFH2-DA) at a final concentration of 10 μM for the last 30 min of the treatment period. After incubation, the cells were washed with PBS, trypsinized, and centrifuged, and the resulting pellet was resuspended in PBS and immediately examined by flow cytometry.
Figure 4 The effect of the compound’s treatment on intracellular ROS generation. Cells were treated with compounds (respective IC50 values for each compound for 24 h), and intracellular ROS levels were determined in the human cancer cell line MCF-7 by flow cytometry using dichloro-fluorescein diacetate (DCFH2-DA). * p < 0.05 versus control cells (Ctrl). The data represent the means ± S.D. of at least three experiments with triplicate samples.

MCF-10 cells [4] = experiment: MTT cytotoxicity assay on non-tumoral MCF-10 cells; type: cell-based, human; conditions: Homo sapiens, MCF10, 48 h incubation, IC50 ± SD, three experiments in triplicate
Protocol: (§1) In this study, we wondered whether semi-synthetic compounds have potential antitumoral properties against BC. Therefore, we were interested in investigating the effect of the compounds on the MCF-7 cell line. Firstly, we studied the effect on cell viability using a colorimetric MTT assay, which was performed to quantify the cytotoxic activity; each compound was evaluated at different concentrations (500−100−20−4−0.8−0.16−0.032−0 µM). Daunorubicin was also used as a positive control for comparison with a reference drug. […] Although the MCF-10 cell line provides a useful selectivity model, it may not fully represent the varying sensitivities of different normal cell types within a multicellular organism. The SI value indicates the ratio of toxicity in mammalian host cells to that in a tumoral cell. The data obtained in response to different concentrations of compounds were used to calculate the IC50 and corresponding SI values, as shown in Table 1.
(§2) The American Type Culture Collection (Rockville, MD, USA) supplied the following experimental cell lines: MCF-7, a human breast cancer cell line, and MCF-10A, a human epithelial breast cell line (ATCC N° CRL-10317). Both cell lines were grown in DMEM-F12 medium containing 10% FCS, 100 U/mL penicillin, 100 μg/mL streptomycin, and 1 mM glutamine. The cells were seeded at a concentration of 100 μL per well at a plating density of 3 × 10^3 cells/well and incubated for 24 h at 37 °C under 5% humidified CO2 to enable attachment. The cells were then treated with varying concentrations of synthesized compounds for […] under the same conditions. The compound stock solution was prepared in DMSO, and the final concentration of DMSO was kept at 0.1%. Control cultures were treated with only 1% ethanol.
(§3) Cells from the MCF-7 and MCF-10 lines were seeded into 96-well plates at a density of 1 × 10^4 per well. After 24 h, the compounds were added at increasing concentrations (500–100–20-4–0.8–0.16–0.032–0 µM), and the cells were incubated at 37 °C in a humidified 5% CO2/95% air mixture for 48 h. Following incubation, the cells were washed twice with PBS, and 100 μL of 0.5 mg/mL MTT solution was added to each well. After 2 h of incubation, the MTT solution was removed, and the formazan crystals were dissolved in 50 μL of DMSO per well. Absorbance was then measured at 570 nm using a microplate ELISA reader. IC50 values, determined from three independent experiments conducted in triplicate, were calculated using SigmaPlot® software (version 11.0). The selectivity index (SI) of each compound in each cell line was determined by calculating the ratio of the IC50 values for MCF-10 and cancer cell lines. Compounds were considered selective if SI values were equal to or greater than 3 [46].

MCF-7 cells [5] = experiment: MTT cytotoxicity assay on MCF-7 cells; type: cell-based, human; conditions: for IC50: Homo sapiens, MCF7, MTT, 48 h incubation, IC50 ± SD, three experiments in triplicate; for Selectivity Index (SI): SI = IC50 on MCF-10 cells/IC50 on MCF-7 cells
Protocol: as §1, §2, §3

MCF-7 cells [6] = experiment: Mitochondrial membrane potential (rhodamine 123, flow cytometry); type: cell-based, human; conditions: MCF-7, compounds at respective IC50, 24 h
Protocol: To determine whether the toxic effects of selected sesquiterpenes (10c, 11c, 12c, 13c, and 14c) are due to the production of ROS and subsequent apoptosis, the mitochondrial membrane potential was measured. With this aim, a protocol using rhodamine 123 staining and flow cytometry was established to study the effect of the selected compounds [40]. The accumulation of rhodamine 123 in mitochondria is associated with the maintenance of the electrochemical gradient in mitochondria. Daunorubicin was used as a positive control (C+). The results are presented as the percentage of cells with increased mitochondrial membrane permeability.
Rhodamine 123 (Rho123), a positively charged dye that reacts to voltage changes and enters the mitochondria, was utilized to detect modifications in the mitochondrial membrane potential. The cells were exposed to specific compounds (IC50 values for each compound) for 24 h. Control cells that had not been treated were used as negative control, while cells treated with daunorubicin at a concentration of 1 µM served as the positive control. Following this, the cells were incubated with Rho123 (at a concentration of 1 µM) in darkness for an hour at 37 °C. Afterward, the medium was taken out, and the cells were washed with PBS. The cells were then dissociated using trypsin and collected through centrifugation for 10 min at 1500×g. The supernatant was thrown away, and the cell pellets were resuspended in PBS and analyzed using flow cytometry with the FL1 filter. The results are shown as the percentage of Rho123-stained cells.
Figure 5 The effect of the compound’s treatment on mitochondrial membrane potential. […] The data represent the means ± S.D. of at least three experiments with triplicate samples.

human topoisomerase II = experiment: TOP2 DNA relaxation / plasmid linearization assay; type: biochemical; conditions: 20 μM
Protocol: The ability to relax DNA conformations is a central function of topoisomerase enzymes. Several studies have associated some proapoptotic compounds with the ability to inhibit topoisomerase enzymes. The ability of the selected compounds to inhibit TOP1 or TOP2 activity was determined. In this experiment, daunorubicin was used as a positive control for TOP1/2 inhibition, as previously reported. […] It is important to note the potential for cardiotoxicity associated with some TOP2 inhibitors, which highlights the relevance of assessing compound 14c’s interaction with TOP2B. […] Future studies should include assays to evaluate the specific activity of 14c against both TOP2A and TOP2B to provide a more comprehensive safety profile, as isoform-selective TOP2 inhibitors may offer a therapeutic advantage by reducing adverse effects.
Topoisomerase II-mediated DNA cleavage was assessed using a plasmid linearization assay adapted from previously described methods. Supercoiled plasmid DNA (200 ng final concentration) was incubated with purified human topoisomerase II (10 U) in the presence or absence of test agents or a positive control. Reactions were carried out in a total volume of 20 μL, composed of 2 μL of 10× topoisomerase II reaction buffer, an appropriate volume of compound or control, and nuclease-free water. ATP (final concentration adjusted from a 20 mM stock) was freshly added to the reaction buffer immediately prior to use. Reactions were initiated by the addition of topoisomerase II and incubated at 37 °C for 30 min. To terminate the reactions, 2 μL of 10% SDS was added directly to the tubes while still in the 37 °C water bath, followed by the addition of 1.5 μL of 250 mM tetrasodium EDTA (pH 8.0) and 2 μL of proteinase K solution (0.8 mg/mL). […]
Figure 7 The effect of sesquiterpene aryl esters on TOP1- and TOP2-induced DNA relaxation was assessed. (A) The TOP1 inhibition assay evaluated the compounds (10c, 11c, 12c, 13c, and 14c) at a concentration of 20 μM in a DNA relaxation assay. […]

MCF-10 cells [7] = tested on: MCF-10 cells; design: method as in PMID 25412045; conditions: reference drug; cited from earlier work

mitochondrial membrane permeability (MCF-7 cells [6]) | SMILES | cytotoxicity of the base sesquiterpene system (MCF-7 cells [1]; as previously reported by our group) | caspases-3/7 activity [2] | intracellular ROS levels (DCF fluorescence) (MCF-7 cells [3]) | IC50 (MCF-10 cells [4]) | IC50 (MCF-7 cells [5]) | Selectivity Index (SI) (MCF-7 cells [5]) | inhibition of TOP2-induced DNA relaxation (human topoisomerase II) | IC50 (MCF-10 cells [7]) | IC50 (MCF-7 cells [1]; reference drug)
 | CC1=CC[C@H]2C(C)(C)CCC[C@]2(C)[C@H]1CO [(-)-drimenol] | inactive |  |  |  |  |  |  |  | 
did not increase | COc1ccc(C[C@H]2C(C)=CCC3C(C)(C)CCC[C@@]32C)cc1OC (stereo partly drawn) [Compound 11c, (4aS,5S)-5-(3,4-Dimethoxybenzyl)-1,1,4a,6-tetramethyl-1,2,3,4,4a,5,8,8a-octahydronaphthalenene] |  | considerably enhanced | significantly increased; also recorded: most effective | 87.7 ± 17.8 µM | 13.5 ± 1.8 µM | 6.5 |  |  | 
did not increase | COc1ccc(C(=O)[C@H]2C(C)=CCC3C(C)(C)CCC[C@@]32C)cc1OC (stereo partly drawn) [Compound 12c, (3,4-Dimethoxyphenyl)((1S,8aS)-2,5,5,8a-tetramethyl-1,4,4a,5,6,7,8,8a-octahydronaphthalen-1-yl)methanone] |  | considerably enhanced | significantly increased | 131 ± 29.3 µM | 30.1 ± 6.6 µM | 4.3 |  |  | 
 | COc1cccc2c1C(=O)c1c(O)c3c(c(O)c1C2=O)C[C@@](O)(C(C)=O)C[C@@H]3O[C@H]1C[C@H](N)[C@H](O)[C@H](C)O1 [Daunorubicin, reference compound] |  |  |  |  |  | 28 | modified the TOP2-induced DNA relaxation pattern | 9.32 ± 1.01 µM | 0.33 ± 0.02 µM
